From ChEMBL document CHEMBL2074042, “beta-lactam antibiotics as substrates for OCTN2, an organic cation/carnitine transporter” (J Biol Chem, 2000)

Molecular target: T1, Organic cation/carnitine transporter 2 (Homo sapiens, UniProt O76082)
T1 sequence (O76082 whole entry): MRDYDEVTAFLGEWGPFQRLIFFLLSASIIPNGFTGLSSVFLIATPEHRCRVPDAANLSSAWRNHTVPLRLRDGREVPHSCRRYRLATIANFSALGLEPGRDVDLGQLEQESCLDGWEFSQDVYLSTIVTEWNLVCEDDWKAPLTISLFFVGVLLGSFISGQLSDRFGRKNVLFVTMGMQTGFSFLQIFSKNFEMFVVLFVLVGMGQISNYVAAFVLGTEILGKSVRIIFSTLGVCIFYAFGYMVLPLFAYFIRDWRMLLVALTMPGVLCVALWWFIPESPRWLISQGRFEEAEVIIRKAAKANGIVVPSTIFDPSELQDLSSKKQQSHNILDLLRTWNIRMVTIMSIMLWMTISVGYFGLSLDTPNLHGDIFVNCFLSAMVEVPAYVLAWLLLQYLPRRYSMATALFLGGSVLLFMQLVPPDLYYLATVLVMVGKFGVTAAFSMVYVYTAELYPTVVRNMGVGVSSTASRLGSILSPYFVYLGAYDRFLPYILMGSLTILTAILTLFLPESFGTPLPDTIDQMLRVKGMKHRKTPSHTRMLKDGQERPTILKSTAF
Test: TP_TRANSPORTER: inhibition of Carnitine uptake (Carnitine: 0.02 uM, PCG: 2500 uM) in OCTN2-expressing HeLa cells
Format: functional, cell-based

`CC1(C)S[C@@H]2[C@H](NC(=O)Cc3ccccc3)C(=O)N2[C@H]1C(=O)O` [PENICILLIN G] was tested, and the Activity was “is not an inhibitor [-]”.
